Measured values from patent US20260210976A1, “METHOD TO DETECT AND TREAT PERIPHERAL NEUROPATHY” (Ohio State Innovation Foundation, priority 2022, published 2026).

How the values were obtained:
[1] = system: PSD95 and PGP9.5 protein expression in scWAT; assay: Western blot of scWAT after daily intra-adipose CL316 243; assay type: in vivo; settings: daily intra-adipose administration for 7 days
[2] = system: scWAT; assay: Hematoxylin staining of scWAT sections; assay type: in vivo, mouse
From the text: Intact inguinal scWAT (ing-scWAT), axillary scWAT (ax-scWAT), and perigonadal WAT (pgWAT) depots were excised from BL6 and HET3 mice, fixed in 10% buffered formalin overnight at room temperature and embedded in paraffin. Paraffin embedded tissues were sectioned 7 μm thick. Tissue sections were deparaffinized with HistoChoice Clearing Agent and hydrated in decreasing concentrations of EtOH (100%, 95% 70%, 30%, 0%). Tissues were stained in Mayer's Hematoxylin Solution (Sigma-Aldrich Cat #MHS16) or Mayer's Hemalum Solution (Sigma-Aldrich Cat #109249) and a drop of mounting fluid was applied, and tissues were cover slipped, sealed, and imaged. Three representative images were captured per tissue per animal and cell perimeter and area was measured in Fiji (Schindelin et al., 2012).

[3] = Harrison et al., 2009; cited from earlier work
[4] = system: diabetic NONcNZO10/LtJ mice; settings: 14 ppm diet-fed (Reifsnyder, Doty, & Harrison, 2014); cited from earlier work
[5] = system: scWAT collagen; assay: Picrosirius red staining and collagen birefringence quantification of scWAT; assay type: in vivo, mouse
From the text: Intact scWAT and pgWAT depots were excised from BL6 and HET3 mice, fixed in 10% buffered formalin overnight at room temperature and embedded in paraffin. Paraffin embedded tissues were sectioned 7 μm thick. Tissue sections were deparaffinized with HistoChoice Clearing Agent (Sigma-Aldrich Cat #H2779) and hydrated in decreasing concentrations of EtOH (100%, 95% 70%, 30%, 0%). Tissues were stained in picrosirius red stain (Electron Microscopy Sciences Cat #26357) for 1 hr, washed in two changes of acidified water (5 seconds each), dehydrated in three changes of 100% EtOH, cleared in histo-grade Xylenes for 5 minutes and cover slipped using Permount mounting media (Electron Microscopy Sciences Cat #17986-01). Five representative images per tissue were captured using both brightfield and circularly polarized light to gauge collagen distribution. Total collagen was measured by first quantifying the area comprised by picrosirius red staining in the field of view using brightfield microscopy. This was then divided by the area comprised exclusively of polarized collagen fibers. […] To differentiate the relative contribution of collagen fiber thicknesses, methods were adapted from (Rich & Whittaker, 2005) for use in Fiji (Schindelin et al., 2012). Hue values used for this analysis were as follows: green (52-128), yellow (39-51), orange (10-38), and red (0-9, 230-255). Saturation was not accounted for, and brightness was thresholded at 35-255 to prevent noise from being included in pixel counts. See FIG. 11 for a schematic of this method.

Row | SMILES | PGP9.5 protein expression in scWAT [1] | PSD95 expression in scWAT [1] | crown-like structures, lipofuscin and immune cell infiltration in scWAT ([2]; early-intervention group (started ~30 weeks)) | crown-like structures, lipofuscin and immune cell infiltration in scWAT ([2]; late-intervention group (started ~72 weeks)) | circulating rapamycin, males versus females [3] | pancreatic fibrosis [4] | total increase in collagen between treatment groups ([5]; early-intervention) | collagen deposition versus vehicle group ([5]; early-intervention group) | animals exhibiting severely fibrotic tissue ([5]; early-intervention, females) | animals exhibiting severely fibrotic tissue ([5]; early-intervention, males) | green collagen fibers (birefringence) ([5]; early-intervention, males) | orange collagen fibers (birefringence) ([5]; early-intervention, males) | thick collagen fibers (orange+red), share of thin:thick ratio ([5]; early-intervention, males) [%] | thin collagen fibers, share of thin:thick ratio ([5]; early-intervention, males) [%] | birefringence patterns ([5]; late-intervention) | total collagen ([5]; late-intervention, females) | total collagen ([5]; late-intervention, males, failed to meet statistical significance) | adipose tissue inflammation and fibrosis ([5]; overall statement) | scWAT fibrosis ([5]; treatment started early in life)
1 | C[C@H](Cc1ccc2c(c1)OC(C(=O)[O-])(C(=O)[O-])O2)NC[C@H](O)c1cccc(Cl)c1.[Na+].[Na+] [CL316 243] | upward trend | increased | – | – | – | – | – | – | – | – | – | – | – | – | – | – | – | – | –
2 | CO[C@H]1C[C@@H]2CC[C@@H](C)[C@@](O)(O2)C(=O)C(=O)N2CCCC[C@H]2C(=O)O[C@H]([C@H](C)C[C@@H]2CC[C@@H](O)[C@H](OC)C2)CC(=O)[C@H](C)/C=C(\C)[C@@H](O)[C@@H](OC)C(=O)[C@H](C)C[C@H](C)/C=C/C=C/C=C/1C [rapamycin] | – | – | increased | not observed | equivalent | caused pancreatic fibrosis | not statistically significant | greater | 3 out of 11 | 3 out of 8 | decreased | increased | 75 | 25 | did not vary | no difference | possible increase | worsened | increased
